Laboratory results published in PMC6822569 (Journal of medicinal chemistry, 2019).
Like-named read-outs stand apart in the source and are kept apart here.

How the values were obtained:
P. falciparum Dd2 [1] = assay: microbe, parasite or virus in culture; type: cell-based
P. falciparum Tm90-C2B = assay: In vitro blood stage antimalarial activity, MSF assay, strain Tm90-C2B; type: cell-based; conditions: read-out: blood stage IC50 vs P. falciparum Tm90-C2B; Tm90-C2B: Atovaquone resistant clinical isolate
HepG2 = HepG2 cytotoxicity assay; type: cell-based, human
P. yoelii = assay: In vivo blood stage efficacy, modified 4-day test in murine P. yoelii model; conditions: after 80 mg/kg × 4 days oral dosing
[2] = target: hERG (human-ether-a-go-go-related gene) potassium channel (Homo sapiens, UniProt Q12809); assay: hERG potassium channel current, automatic parallel patch clamp; type: cell-based
[3] = In vitro metabolic stability, human liver microsomes; conditions: 1 μM
[4] = In vivo pharmacokinetic study, single oral dose in mice, plasma and liver
P. falciparum Dd2 [5] = assay: 72 h SYBR Green I drug susceptibility, parental Dd2; type: cell-based; conditions: Plasmodium falciparum, DD2, 72 h, read-out: Dd2 IC50
[6] = Plasmodium falciparum, DD2, read-out: blood stage IC50 vs P. falciparum Dd2
[7] = read-out: blood stage IC50 vs P. falciparum Dd2, Dd2: MDR strain with Old World genetic background
[8] = liver, single oral dose of 80 mg/kg, mice
[9] = plasma, single oral dose of 80 mg/kg, mice
[10] = male, ICR, mouse, liver, po, 80 mg/kg

Chain of hERG (human-ether-a-go-go-related gene) potassium channel (Q12809 whole entry): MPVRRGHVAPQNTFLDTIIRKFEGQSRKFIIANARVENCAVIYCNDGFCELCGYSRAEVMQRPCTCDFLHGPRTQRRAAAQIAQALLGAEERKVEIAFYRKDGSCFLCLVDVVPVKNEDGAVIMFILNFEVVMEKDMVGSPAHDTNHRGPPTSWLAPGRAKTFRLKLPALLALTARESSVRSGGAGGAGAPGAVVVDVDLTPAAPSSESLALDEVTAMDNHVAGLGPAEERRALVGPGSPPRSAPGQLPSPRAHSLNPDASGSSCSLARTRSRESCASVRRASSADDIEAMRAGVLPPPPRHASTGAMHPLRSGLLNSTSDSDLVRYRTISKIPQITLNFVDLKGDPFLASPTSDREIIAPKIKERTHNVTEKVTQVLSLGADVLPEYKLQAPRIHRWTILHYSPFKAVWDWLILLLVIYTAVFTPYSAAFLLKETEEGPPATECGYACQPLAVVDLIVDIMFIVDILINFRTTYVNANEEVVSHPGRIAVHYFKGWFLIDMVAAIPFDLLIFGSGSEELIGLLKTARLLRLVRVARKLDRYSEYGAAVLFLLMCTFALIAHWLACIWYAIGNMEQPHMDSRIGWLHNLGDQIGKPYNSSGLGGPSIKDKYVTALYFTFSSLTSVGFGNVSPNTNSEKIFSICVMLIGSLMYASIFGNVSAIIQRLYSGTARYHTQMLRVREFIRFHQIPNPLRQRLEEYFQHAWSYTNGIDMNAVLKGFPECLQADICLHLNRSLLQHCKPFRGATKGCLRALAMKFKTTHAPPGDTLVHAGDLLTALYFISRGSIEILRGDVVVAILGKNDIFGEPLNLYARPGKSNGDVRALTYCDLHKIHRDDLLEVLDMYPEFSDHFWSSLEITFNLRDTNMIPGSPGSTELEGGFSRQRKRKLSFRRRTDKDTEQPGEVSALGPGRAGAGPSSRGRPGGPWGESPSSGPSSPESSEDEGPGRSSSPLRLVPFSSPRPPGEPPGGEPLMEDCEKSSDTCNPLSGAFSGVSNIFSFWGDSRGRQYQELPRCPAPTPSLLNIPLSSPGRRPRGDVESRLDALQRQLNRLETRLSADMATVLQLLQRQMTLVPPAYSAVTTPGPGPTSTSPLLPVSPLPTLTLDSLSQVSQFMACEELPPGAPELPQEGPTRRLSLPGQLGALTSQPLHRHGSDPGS

Compound CN1CCCC1CCOc1ccc2c(=O)c3c(Cl)c(Cl)ccc3[nH]c2c1 (stereo not shown) [compound 76, 1,2-Dichloro-6-(2-(1-methylpyrrolidin-2-yl)ethoxy)acridin-9(10H)-one] has an IC50 (P. falciparum Dd2 [1]; [6]) of 172 nM.

“1,2-Dichloro-6-(3-(dibutylamino)propoxy)acridin-9(10H)-one [compound 75]” showed an IC50 (P. falciparum Dd2 [1]; [7]) of 0.041 nM, an IC50 (P. falciparum Tm90-C2B) of 228 nM and an IC50 (HepG2; read-out: cytotoxicity IC50 vs HepG2, human hepatocarcinoma HepG2 cells) of 54500 nM. The “cure in murine P. yoelii model” value (P. yoelii) was “curative”, the “hERG activity (% inhibition at 10 uM)” value [2] was 57% and the “metabolic stability vs microsomes t1/2, human” value [3] was 0.2 h. It also gave an AUCinf [4, 8] of 169389 ng·h/mL, an AUClast [4, 8] of 167981 ng·h/mL and a CL/F [4, 8] of 8.95 mL/min/kg. For the same compound, the Cmax [4, 8] was 21269 ng/mL, the MRT b [4, 8] was 10.08 h and the Tmax [4, 8] was 2.75 h. For the same compound, the Vz/F [4, 8] was 3.605 L/kg, the t1/2 [4, 8] was 4.63 h and the AUCinf [4, 9] was 3239 ng·h/mL. It also gave an AUClast [4, 9] of 3049 ng·h/mL, a CL/F [4, 9] of 431.32 mL/min/kg and a Cmax [4, 9] of 226 ng/mL. For the same compound, the MRT b [4, 9] was 6.96 h, the Tmax [4, 9] was 2.75 h and the Vz/F [4, 9] was 223.865 L/kg. For the same compound, the t1/2 [4, 9] was 6.00 h.

In the case of CCN(CC)CCOc1ccc2c(=O)c3c(Cl)c(Cl)ccc3[nH]c2c1 [compound 73, 1,2-Dichloro-6-(2-(diethylamino)ethoxy)acridin-9(10H)-one], the IC50 (P. falciparum Dd2 [1]; [6]) is reported as 12 nM and the IC50 (P. falciparum Dd2 [5]) is reported as 40 ± 5.5 nM.

In the case of CCN(CC)CCOc1ccc2c(=O)c3c(F)cc(F)cc3[nH]c2c1 [compound 46, 6-(2-(Diethylamino)ethoxy)-1,3-difluoroacridin-9(10H)-one], the IC50 (P. falciparum Dd2 [1]; [6]) is reported as 16 nM.

COc1cc(NC(C)CCCN)c2ncccc2c1 (stereo not shown) [Primaquine, reference compound] gave a Vd/F ([4]; male, ICR, mouse, in vivo, po, 80 mg/kg) of 4.42 L/kg.

For CCN(CC)CCOc1ccc2[nH]c3cc(Cl)ccc3c(=O)c2c1 [compound 128, 6-chloro-2-(2-(diethylamino)ethoxy)acridin-9(10H)-one], the IC50 (P. falciparum Dd2 [1]; [6]) was 132 nM.

In the case of CCCN(CCC)CCOc1ccc2c(=O)c3c(F)cc(F)cc3[nH]c2c1 [compound 48, 6-(2-(Dipropylamino)ethoxy)-1,3-difluoroacridin-9(10H)-one], the “cure in murine P. yoelii model” value (P. yoelii) is reported as “curative”, the CL/F [4, 10] is reported as 15.5 mL/min/kg and the Vd/F [4, 10] is reported as 14 L/kg. It also gave a CL/F [4, 9] of 407.77 mL/min/kg.

CC(C)(C)NCCOc1ccc2c(=O)c3c(Cl)c(Cl)ccc3[nH]c2c1 [compound 78, 6-(2-(tert-Butylamino)ethoxy)-1,2-dichloroacridin-9(10H)-one] showed an IC50 (P. falciparum Dd2 [1]; [6]) of 679 nM.

In the case of CCN(CC)CCOc1ccc2c(=O)c3ccc(Cl)cc3[nH]c2c1 [compound 7, 3-chloro-6-(2-(diethylamino)ethoxy)acridin-9(10H)-one], the IC50 (P. falciparum Dd2 [1]; [6]) is reported as 41 nM.

In the case of CCCN(CCC)CCCOc1ccc2c(=O)c3c(F)cc(F)cc3[nH]c2c1 [compound 52, 6-(3-(Dipropylamino)propoxy)-1,3-difluoroacridin-9(10H)-one], the CL/F [4, 10] is reported as 5.8 mL/min/kg and the Vd/F [4, 10] is reported as 3.48 L/kg.

With CCCN(CCC)CCOc1ccc2c(=O)c3c(Cl)c(Cl)ccc3[nH]c2c1 [compound 74, 1,2-Dichloro-6-(2-(dipropylamino)ethoxy)acridin-9(10H)-one] the IC50 (P. falciparum Dd2 [1]; [6]) was 0.05 nM, the “cure in murine P. yoelii model” value (P. yoelii) was “curative” and the CL/F [4, 10] was 2.45 mL/min/kg. It also gave a Vd/F [4, 10] of 0.392 L/kg.

In the case of “1,4-Dichloro-6-(3-(diethylamino)propoxy)acridin-9(10H)-one [compound 100]”, the IC50 (P. falciparum Dd2 [1]; [7]) is reported as 1300 nM, the IC50 (P. falciparum Tm90-C2B) is reported as greater than 2500 nM and the IC50 (HepG2) is reported as 77000 nM. For the same compound, the “selectivity index (SI) (D6)” value (HepG2; SI = IC50 (cytotoxicity)/IC50 (D6)) was 152.

O=c1c2ccc(OCCNC34CC5CC(CC(C5)C3)C4)cc2[nH]c2ccc(Cl)c(Cl)c12 [compound 81, 6-(2-((Adamantan-1-yl)amino)ethoxy)-1,2-dichloroacridin-9(10H)-one] gave an IC50 (P. falciparum Dd2 [1]; [6]) of 77 nM.

In the case of O=c1c2ccc(OCCCCl)cc2[nH]c2ccc(Cl)c(Cl)c12 [compound 71, 1,2-Dichloro-6-(3-chloropropoxy)acridin-9(10H)-one], the IC50 (P. falciparum Dd2 [1]; [6]) is reported as 17 nM.
